Test results reported in patent US11814376B2, “Hepatitis b core protein modulators” (Assembly Biosciences, Inc., priority 2015, dated 2023).

Columns and labels:
[1] = tested on: HBV viral load in AD38 cells; experiment: Viral load production in AD38 cells, quantitative PCR of the core sequence in supernatant; format: cell-based; details: 10 μM compound, 6 days at 37° C., supernatant qPCR, relative to DMSO control; for activity at 10 µM: Hepatitis B virus, 144 h, read-out: AD38 Viral Load (%) (VL with cmpd/VL in DMSO control) at 10 μM
Method: (§1) Example 2: Assay Measuring Activity of Compounds on Viral Production in and on Viability of AD38 Cells
(§2) AD38 cells were then re-suspended with 10 mL of Treatment Medium and counted. Wells of a collagen coated 96-well NUNC microtiter plate were seeded at 50,000/well in 180 μL of Treatment Medium, and 20 μL of in treatment media with either 10% DMSO (Control) or a 10× solution of compound in 10% DMSO was added. Plates were incubated for 6 days at 37° C.
Viral load production was assayed by quantitative PCR of the core sequence. […] The PCR mixture was incubated at 45° C. for 5 minutes, then 95° C. for 10 min, followed by 40 cycles of 10 seconds at 95° C. and 20 seconds at 60° C. Viral load was quantitated against known standards by using ViiA™ 7 Software. Viral load in the supernatant from wells with treated cells were compared against viral load in supernatant from DMSO control wells (>3 per plate).

AD38 cells = experiment: Viability of AD38 cells (Promega CellTiter-Glo); format: cell-based; details: 10 μM compound, 6 days, CellTiter-Glo luminescence normalized to DMSO control (100%)
Method: as §1, §2
At the end of compound treatment period cell viability was assessed using a Promega CellTiter-Glo protocol. All supernatant was removed the previously treated 96-well microtiter plate, and 50 μL Tetracycline-free treatment medium (DMEM/F12 (1:1), 1× Pen/step (cat #: 30-002-CL, Mediatech, Inc), with 2% FBS, Tet-system approved (cat #: 631106, Clontech), and 1% DMSO was added back to each well. Another 50 μL of CellTiter-Glo reagent solution (Promega, G7573) was then added at room temperature and the contents mixed for 2 minutes on an orbital shaker to induce cell lysis. This was followed by incubation at room temperature for 10 minutes to stabilize the luminescent signal. The luminescence was recorded for 0.2 seconds per well on a Tecan multimode plate reader (Infinite M1000 pro). The luminescent signal from each well was normalized against that of untreated (DMSO) control wells. All results were reported percent viability (with controls being 100%).

| SMILES | activity at 10 µM [1] | AD38 Viability Normalized Result (cmpd/DMSO %) at 10 μM (AD38 cells) | AD38 Viral Load (%) (VL with cmpd/VL in DMSO control) at 10 μM [1] |
| --- | --- | --- | --- |
| O=C(NCc1cnc(OCCOC2CCCCO2)s1)c1ccc2c(c1)NC(=O)c1ccccc1O2 (centres unmarked) [1613-A, 11-oxo-N-((2-(2-((tetrahydro-2H-pyran-2-yl)oxy)ethoxy)thiazol-5-yl)methyl)-10, 11-dihydrodibenzo [b, f] [1, 4] oxazepine-8-carboxamide] | 11.5% | 95% |  |
| CN(C)CC1(COc2ccc(-c3ncc(CNC(=O)c4ccc5c(c4)NC(=O)c4ccccc4S5(=O)=O)s3)cc2)CC1 [compound 11112] | 4% | 100% |  |
| O=C(NCc1cnc(-c2cc(O)ccn2)s1)c1ccc2c(c1)NC(=O)c1ccccc1S2(=O)=O [compound 1880, N-((2-(4-hydroxypyridin-2-yl)thiazol-5-yl)methyl)-11-oxo-10, 11-dihydrodibenzo [b, f] [1, 4] thiazepine-8-carboxamide 5,5-dioxide] | 6.7% | 104% |  |
| Cc1c(C(=O)NCc2cnc(-c3ccc(OCCCN(C)C)cc3)s2)ccc2c1NC(=O)c1ccccc1S2(=O)=O [C38-01] | 1.3% | 99% |  |
| COC(=O)c1ccc(-c2ncc(CNC(=O)c3ccc4c(c3)NC(=O)c3ccccc3O4)s2)cc1 [1612-A, methyl 4-(5-((11-oxo-10, 11-dihydrodibenzo [b, f] [1, 4]oxazepine-8-carboxamido)methyl)thiazol-2-yl) benzoate] | 12.4% | 101% |  |
| O=C(NCc1cnc(-c2cccnc2)s1)c1ccc2c(c1)NC(=O)c1ccccc1S2(=O)=O [compound 1624] | 0.8% | 98% |  |
| NCCC#Cc1ccc(-c2ncc(CNC(=O)c3ccc4c(c3)NC(=O)c3ccccc3S4(=O)=O)s2)cc1 [compound 11002, N-((2-(4-(4-aminobut-1-yn-1-yl)phenyl)thiazol-5-yl)methyl)-11-oxo-10, 11-dihydrodibenzo [b, f] [1, 4] thiazepine-8-carboxamide 5,5-dioxide] | 0.9% | 90% |  |
| CCc1cc2c(cc1C(=O)NCc1cnc(C(F)(F)F)s1)NC(=O)c1ccccc1S2(=O)=O [compound 11041] | 47.4% | 94% |  |
| Cc1c(C(=O)NCc2cnc(-n3cccn3)s2)ccc2c1NC(=O)c1ccccc1S2(=O)=O [compound 11074] |  | 103% | 0.6% |
| COc1ccc(-c2ncc(CNC(=O)c3ccc4c(c3)NC(=O)c3ccccc3S4(=O)=O)s2)cc1 [compound 1596] | 3.8% | 25% |  |
| Cl.NCc1cnc(-c2ncc(CNC(=O)c3ccc4c(c3)NC(=O)c3ccccc3S4)s2)s1 [compound 1735, N-((5′-(aminomethyl)-[2, 2′-bithiazol]-5-yl)methyl)-11-oxo-10, 11-dihydrodibenzo [b, f] [1, 4] thiazepine-8-carboxamide hydrochloride] | 3.1% | 92% |  |
| N#Cc1ccc(-c2ncc(CNC(=O)c3ccc4c(c3)NC(=O)c3ccccc3O4)s2)cc1 [1770-A, N-((2-(4-cyanophenyl)thiazol-5-yl)methyl)-11-oxo-10, 11-dihydrodibenzo [b, f] [1, 4] oxazepine-8-carboxamide] | 29.8% | 100% |  |
| COc1ccnc(-c2ncc(CNC(=O)c3ccc4c(c3)NC(=O)c3ccccc3S4(=O)=O)s2)c1 [1880-A, N-((2-(4-methoxypyridin-2-yl)thiazol-5-yl)methyl)-11-oxo-10, 11-dihydrodibenzo [b, f] [1, 4] thiazepine-8-carboxamide 5,5-dioxide] | 0.7% | 124% |  |
| CNCCCOc1ccc(-c2ncc(CNC(=O)c3ccc4c(c3)NC(=O)c3ccccc3S4(=O)=O)s2)cc1 [compound 1989, N-((2-(4-(3-(methylamino)propoxy)phenyl)thiazol-5-yl)methyl)-11-oxo-10, 11-dihydrodibenzo [b, f] [1, 4] thiazepine-8-carboxamide 5,5-dioxide] | 2.5% | 90% |  |
| O=C(NCc1cnc(-c2ccc(O)nc2)s1)c1ccc2c(c1)NC(=O)c1ccccc1O2 [compound 1706, N-((2-(6-hydroxypyridin-3-yl)thiazol-5-yl)methyl)-11-oxo-10, 11-dihydrodibenzo [b, f] [1, 4] oxazepine-8-carboxamide] | 57.5% | 103% |  |
| Cc1c(C(=O)NCc2cnc(C(F)(F)F)s2)ccc2c1NC(=O)c1ccccc1S2(=O)=O [compound 1767] | 0.5% | 94% |  |
| Cc1ncc(CNC(=O)c2ccc3c(c2C)NC(=O)c2ccccc2S3)s1 [compound 1535] | 0.8% | 84% |  |
| CCN(CC)CCC(C)Oc1ccc(-c2ncc(CNC(=O)c3ccc4c(c3)NC(=O)c3ccccc3S4(=O)=O)s2)cc1 (centres unmarked) [compound 11101] | 1.9% | 85% |  |
| CN(C)CCCOc1ccc(-c2ncc(CNC(=O)c3ccc4c(c3)NC(=O)c3ccccc3O4)s2)cc1 [compound 1698] | 2.7% | 91% |  |
| CN(C)CCCS(=O)(=O)c1ccc(-c2ncc(CNC(=O)c3ccc4c(c3)NC(=O)c3ccccc3S4(=O)=O)s2)cc1.O=C(O)C(F)(F)F [compound 11033, N-((2-(4-((3-(dimethylamino)propyl)sulfonyl)phenyl)thiazol-5-yl)methyl)-11-oxo-10, 11-dihydrodibenzo [b, f] [1, 4] thiazepine-8-carboxamide 5,5-dioxide TFA salt] | 17.1% | 95% |  |
| Cl.O=C(NCc1cnc(-c2ccc(N3CCNCC3)cc2)s1)c1ccc2c(c1)NC(=O)c1ccccc1S2(=O)=O [compound 11018, 11-oxo-N-((2-(4-(piperazin-1-yl)phenyl)thiazol-5-yl)methyl)-10, 11-dihydrodibenzo [b, f] [1, 4] thiazepine-8-carboxamide 5,5-dioxide hydrochloride] | 3.9% | 98% |  |
| O=C(NCc1cnc(N2CCC(O)CC2)s1)c1ccc2c(c1)NC(=O)c1ccccc1O2 [compound 1865] | 1% | 94% |  |
